Patent US20060135773A1, “Trisubstituted nitrogen modulators of tyrosine phosphatases” (priority 2004, published 2006)
Like-named read-outs stand apart in the source and are kept apart here.

Key:
PTP-1B = target: T1, PTP-1B (Homo sapiens, UniProt P18031); test: pNPP tyrosine phosphatase inhibition assay, PTP-1B; type: biochemical
T1 construct: PTP-1B (purified, 1 mg/mL) as a 1:250 dilution
T1 sequence (P18031 1-321 limits assumed): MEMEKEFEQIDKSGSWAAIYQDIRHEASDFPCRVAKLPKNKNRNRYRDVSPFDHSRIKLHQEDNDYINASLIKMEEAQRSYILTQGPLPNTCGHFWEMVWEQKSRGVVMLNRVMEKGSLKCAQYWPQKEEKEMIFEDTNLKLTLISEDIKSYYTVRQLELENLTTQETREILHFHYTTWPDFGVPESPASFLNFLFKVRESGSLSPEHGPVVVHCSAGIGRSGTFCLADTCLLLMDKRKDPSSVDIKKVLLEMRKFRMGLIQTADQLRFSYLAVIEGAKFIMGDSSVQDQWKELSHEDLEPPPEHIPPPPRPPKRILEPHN
Method in brief: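 Test compounds were screened at two final levels, 31.3 and 10 µM, against 4 µg/mL purified PTP-1B. The substrate was 10 mM p-nitrophenyl phosphate, with incubation for 10 min at 30°C before a K2CO3 quench. Activity was taken from A405.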

[1] = test system: pIR (phosphorylated insulin receptor) in FAO cells; test: IR phosphorylation assay in FAO cells (pIR ELISA / Western); type: cell-based, rat; details: 10 nM insulin and 10 μM compound
From the text: Antibodies and Chemicals. The antibody against phosphorylated insulin receptor (pIR) and the ELISA kit for detection of pIR were from Biosource (Camarillo, Calif.). Rabbit anti-IR/IGF-IR [pYpY1162/1163] phosphospecific antibody recognizes both the insulin receptor (IR) and the insulin-like growth factor-1 receptor (IGF-1R) phosphorylated at the active site tyrosine residues, 1162 and 1163 (1135 and 1136 for IGF-1R) (pIR/pIGF-1R). The Insulin Receptor [pYpY1162/1163] […] HRP-conjugated secondary antibodies were from Cell Signaling Technology (Beverly, Mass.). The ECL detection system was from Amersham (Buckinghamshire, UK), and human insulin was from Invitrogen (Carlsbad, Calif.).
Tissue Culture. FAO rat hepatoma cells were obtained from ECACC (#89042701) and maintained at 37° C. in a 5% CO2 environment in Dulbecco's modified Eagle's medium with high glucose (DMEM-high glucose) (4500 mg/liter) supplemented with 10% FBS and 50 units/ml penicillin, 100 μg/ml streptomycin and 0.292 mg/ml L-glutamine. For assays, cells were seeded in 24-well plates at a density of 2×10^5 cells/well and maintained until they reached confluency (about 3 days).
IR phosphorylation assays. Cells in 24-well plates were serum starved overnight in DMEM-low glucose (1000 mg/liter) without serum. […] The pIR/pIGF-1R signals were scanned (HP scanjet 3570c) and quantified (Scion Image). […]

[2] = pNPP assay, PTP-1B, read-out: Activity Class (IC50 ranges)

Row | Compound | IC50 (PTP-1B; [2]) [nM] | melting point | insulin-induced accumulation of pIR, % of 300 nM insulin pIR signal [1] | IC50 (PTP-1B; in vitro activity of the prodrug, range as in Table 1, read-out: in vitro activity) [nM]
1 | O=P(O)(O)C(F)(F)c1ccc(CN(Cc2ccc(C(F)(F)P(=O)(O)O)cc2)S(=O)(=O)c2ccccc2Cl)cc1 [Compound 5, {[4-({(2-Chloro-benzenesulfonyl)-[4-(difluoro-phosphono-methyl)-benzyl]-amino}-methyl)-phenyl]-difluoro-methyl}-phosphonic acid] | 100 to 249 | 170 to 172 °C | – | –
2 | O=P(O)(O)C(F)(F)c1ccc(CN(Cc2ccc(C(F)(F)P(=O)(O)O)cc2)S(=O)(=O)CCc2ccccc2)cc1 [Compound 9, [(4-{[[4-(Difluoro-phosphono-methyl)-benzyl]-(2-phenyl-ethanesulfonyl)-amino]-methyl}-phenyl)-difluoro-methyl]-phosphonic acid] | 250 to 499 | 181 to 183 °C | – | –
3 | O=C(c1ccccc1)N(Cc1ccc(C(F)(F)P(=O)(O)O)cc1)Cc1ccc(C(F)(F)P(=O)(O)O)cc1 [Compound 11, {[4-({Benzoyl-[4-(difluoro-phosphono-methyl)-benzyl]-amino}-methyl)-phenyl]-difluoro-methyl}-phosphonic acid] | 2500 to 25000 | 87 to 89 °C | – | –
4 | O=C(NCc1ccccc1)N(Cc1ccc(C(F)(F)P(=O)(O)O)cc1)Cc1ccc(C(F)(F)P(=O)(O)O)cc1 [Compound 13, [(4-{3-Benzyl-1-[4-(difluoro-phosphono-methyl)-benzyl]-ureidomethyl}-phenyl)-difluoro-methyl]-phosphonic acid] | > 25000 | 124 to 127 °C | – | –
5 | CN(Cc1ccc(C(F)(F)P(=O)(O)O)cc1)Cc1ccc(C(F)(F)P(=O)(O)O)cc1 [Compound 15, {[4-({[4-(Difluoro-phosphono-methyl)-benzyl]-methyl-amino}-methyl)-phenyl]-difluoro-methyl}-phosphonic acid] | > 25000 | 268 to 270 °C | – | –
6 | O=C(OCc1ccccc1)N(Cc1ccc(C(F)(F)P(=O)(O)O)cc1)Cc1ccc(C(F)(F)P(=O)(O)O)cc1 [Compound 17, {[4-({Benzyloxycarbonyl-[4-(difluoro-phosphono-methyl)-benzyl]-amino}-methyl)-phenyl]-difluoro-methyl}-phosphonic acid] | 2500 to 25000 | 106 to 108 °C | – | –
7 | O=P(O)(O)C(F)(F)c1ccc(CN(Cc2ccc(-c3ccccc3)cc2)Cc2ccc(C(F)(F)P(=O)(O)O)cc2)cc1 [Compound 20, {[4-({Biphenyl-4-ylmethyl-[4-(difluoro-phosphono-methyl)-benzyl]-amino}-methyl)-phenyl]-difluoro-methyl}-phosphonic acid] | 2500 to 25000 | 125 to 128 °C | – | –
8 | O=C(O)c1ccc(CN(Cc2ccc(C(F)(F)P(=O)(O)O)c(Br)c2)S(=O)(=O)c2ccccc2)cc1 [Compound 31, 4-({Benzenesulfonyl-[3-bromo-4-(difluoro-phosphono-methyl)-benzyl]-amino}-methyl)-benzoic acid] | 100 to 249 | 160 to 162 °C | – | –
9 | COc1ccccc1S(=O)(=O)N(Cc1ccc(NC(=O)C(=O)O)cc1)Cc1ccc(NC(=O)C(=O)O)cc1 [Compound 57, N-[4-({(2-Methoxy-benzenesulfonyl)-[4-(oxalyl-amino)-benzyl]-amino}-methyl)-phenyl]-oxalamic acid] | > 25000 | 187 to 189 °C (dec.) | – | –
10 | COc1ccccc1S(=O)(=O)N(Cc1ccc(-c2cccc(C#N)c2)cc1)Cc1ccc(C(F)(F)P(=O)(O)OC(C)OC(=O)OC(C)C)c(Cl)c1 (stereo not shown) [Compound 218, [(2-Chloro-4-{[(3′-cyano-biphenyl-4-ylmethyl)-(2-methoxy-benzenesulfonyl)-amino]-methyl}-phenyl)-difluoro-methyl]-phosphonic acid mono-(1-isopropoxycarbonyloxy-ethyl) ester] | 2500 to 25000 | – | about 80 % of 300 nM insulin pIR signal | 2500 to 25000
11 | {[4-(difluorophosphonomethyl)-3-chlorophenyl]methyl}{[2-(4-methoxyphenyl)phenyl]methyl}[(2-methoxyphenyl)sulfonyl]amine [Compound 190] | < 99 | – | – | –
